Measurements from US20250332173A1, “COMPOUNDS AND METHODS FOR MODULATING NUCLEIC ACID SPLICING” (REMIX THERAPEUTICS INC., priority 2021, published 2025).
Read-outs that look alike come from different tables or passages of the source.

Experiments:
Assay type in all cases: cell-based, human
Target C [1] = assay: RT-qPCR splicing assay panel, Target C canonical junction (CJ) mRNA; conditions: Homo sapiens; Table 5 panel; canonical junction qPCR; compound concentration having 50% response in CJ decrease; read-out: Target C IC50 (decrease in CJ mRNA levels)
Summary of the method: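 Canonical-junction transcript levels in compound-treated A673 or K562 cells (24 h, up to 10 uM final) were determined from lysates by RT-qPCR with housekeeping-gene normalization.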

HTT mRNA = assay: RT-qPCR splicing assay, HTT canonical junction (CJ) and alternative junction (AJ) mRNA; conditions: Homo sapiens; for AC50: increase in HTT alternative junction (AJ) mRNA, read-out: HTT AJ AC50
Summary of the method: (§1)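 A673 cells (normalized to PPIA) or K562 cells (normalized to GAPDH or GUSB) were treated 24 h at 37 °C with an 11-point 3-fold dilution series, top 10 uM, DMSO ≤0.25%. Cell lysates went to one-step RT-qPCR measuring canonical- and alternative-junction MYB or HTT transcripts.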

Target C [2] = assay: HiBiT protein abundance assay, Target C (Promega Nano-Glo HiBiT Lytic Detection System, knock-in K562 cell line); conditions: Homo sapiens, K562, 24 h, HiBiT K562 cell line, 24 hours, top dose 10 μM; read-out: Effect on protein abundance, Target C (IC50 category)
Summary of the method: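 Knock-in K562 cells carrying HiBiT-tagged Target C, 10,000 per well, treated 24 h at 37 °C with 10-point threefold dilutions (top 10 μM final, ≤0.25% DMSO). Lytic HiBiT luminescence read; response normalised to unmodified K562 and DMSO controls, four-parameter fit interpolated at 50% for IC50.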

MYB mRNA = assay: RT-qPCR splicing assay, MYB canonical junction (CJ) and alternative junction (AJ) mRNA; conditions: Homo sapiens; for AC50: increase in MYB alternative junction (AJ) mRNA, read-out: MYB AJ AC50
Summary of the method: as §1

[3] = decrease in HTT canonical junction (CJ) mRNA, RT-qPCR, read-out: HTT CJ IC50
[4] = Table 5 panel, canonical junction qPCR, compound concentration having 50% response in CJ decrease, read-out: HTT IC50 (decrease in CJ mRNA levels)
[5] = Table 5 panel, canonical junction qPCR, compound concentration having 50% response in CJ decrease, read-out: MYB IC50 (decrease in CJ mRNA levels)
[6] = decrease in MYB canonical junction (CJ) mRNA, RT-qPCR, read-out: MYB CJ IC50

Compound | IC50 (Target C [1]) | IC50 (HTT mRNA; [3]) | AC50 (HTT mRNA; RT-qPCR) | IC50 (HTT mRNA; [4]) | IC50 (Target C [2]) | IC50 (MYB mRNA; [5]) | IC50 (MYB mRNA; [6]) | AC50 (MYB mRNA; RT-qPCR)
Cc1cn2nc(-c3ccc4c(=O)n(C5CCN(C)CC5)cnc4c3)cc2c(C)n1 [Compound 303] | 1000 to 10000 nM | 1000 to 10000 nM | 1000 to 10000 nM | 1000 to 10000 nM | 1000 to 10000 nM | 1000 to 10000 nM | 1000 to 10000 nM | 1000 to 10000 nM
Cc1cn2nc(-c3ccc4c(=O)n([C@@H]5C[C@H]6CC[C@@H](C5)N6)ncc4c3)cc(C)c2n1 [Compound 280] | 1000 to 10000 nM | 100 to 1000 nM | 100 to 1000 nM | 100 to 1000 nM | 100 to 1000 nM | 100 to 1000 nM | 100 to 1000 nM | 100 to 1000 nM
Cc1cn2cc(-c3cc(F)c4c(=O)n([C@H]5CCNC[C@@H]5O)cnc4c3)cc(F)c2n1 [Compound 347, 5-fluoro-7-{8-fluoro-2-methylimidazo[1,2-a]pyridin-6-yl}-3-[(3S,4S)-3-hydroxypiperidin-4-yl]quinazolin-4-one] | 1000 to 10000 nM | > 10000 nM | > 10000 nM | > 10000 nM | > 10000 nM | 100 to 1000 nM | 1000 to 10000 nM | 1000 to 10000 nM
CNc1cc(-c2cn3cc(C)nc3c(C)n2)cc2ncn(C3CCNCC3)c(=O)c12 [Compound 360, 7-{2,8-dimethylimidazo[1,2-a]pyrazine-6-yl}-5-(methylamino)-3-(piperidin-4-yl)quinazolin-4-one] | > 10000 nM | > 10000 nM | > 10000 nM | > 10000 nM | > 10000 nM | 1000 to 10000 nM | > 10000 nM | 1000 to 10000 nM
Cc1cn2cc(-c3ccc4c(=O)n(C5CCNCC5)cnc4c3)cc(C(F)(F)F)c2n1 [Compound 306] | 1000 to 10000 nM | 1000 to 10000 nM | 1000 to 10000 nM | 1000 to 10000 nM | 1000 to 10000 nM | 1000 to 10000 nM | > 10000 nM | 1000 to 10000 nM
CN1CCC(n2cnc3cc(-c4cn[nH]c4)ccc3c2=O)CC1 [Compound 299] | > 10000 nM | > 10000 nM | > 10000 nM | > 10000 nM | > 10000 nM | > 10000 nM | > 10000 nM | > 10000 nM
Cc1cn2nc(-c3ccc4c(=O)n(C5CCNC6(CC6)C5)ncc4c3)cc(C)c2n1 (stereo not drawn) [Compound 274] | < 100 nM | < 100 nM | < 100 nM | < 100 nM | < 100 nM | < 100 nM | < 100 nM | < 100 nM
Cc1nc2c(F)cc(-c3ccc4c(=O)n(C5CCN(C)CC5)cnc4c3)cc2s1 [Compound 301] | 1000 to 10000 nM | 1000 to 10000 nM | 1000 to 10000 nM | 1000 to 10000 nM | 1000 to 10000 nM | 1000 to 10000 nM | 1000 to 10000 nM | 1000 to 10000 nM
Cc1cn2nc(-c3cc(F)c4c(=O)n([C@H]5CCNC6(CC6)C5)cnc4c3)cc(C)c2n1 (single isomer, unassigned) [Compound 357] | < 100 nM | < 100 nM | < 100 nM | < 100 nM | < 100 nM | < 100 nM | < 100 nM | < 100 nM
Cc1cn2cc(-c3ccc4c(=O)n(C5CCNCC5)ccc4c3)cc(F)c2n1 [Compound 276] | < 100 nM | < 100 nM | < 100 nM | < 100 nM | < 100 nM | < 100 nM | < 100 nM | < 100 nM
CCN1CCC(N2CCc3cc(-c4cc(C)c5nc(C)cn5n4)ccc3C2=O)CC1 [Compound 270] | > 10000 nM | 1000 to 10000 nM | 1000 to 10000 nM | 1000 to 10000 nM | > 10000 nM | 1000 to 10000 nM | 1000 to 10000 nM | 1000 to 10000 nM
Cc1cn2nc(-c3ccc4c(c3)CCN(C3CCNC3)C4=O)cc(C)c2n1 (stereo not drawn) [Compound 269] | > 10000 nM | > 10000 nM | > 10000 nM | > 10000 nM | 1000 to 10000 nM | > 10000 nM | > 10000 nM | > 10000 nM
Cc1cn2cc(-c3ccc4c(=O)n(C5CCNCC5)cnc4c3)ncc2n1 [Compound 297] | 1000 to 10000 nM | 1000 to 10000 nM | 1000 to 10000 nM | 1000 to 10000 nM | 1000 to 10000 nM | 100 to 1000 nM | 100 to 1000 nM | 100 to 1000 nM
Cn1cc2cc(-c3cc(F)c4c(=O)n(C5CCNCC5)cnc4c3)c(F)cc2n1 [Compound 315] | 1000 to 10000 nM | 1000 to 10000 nM | 1000 to 10000 nM | 1000 to 10000 nM | 1000 to 10000 nM | 100 to 1000 nM | 100 to 1000 nM | 100 to 1000 nM
Cc1cn2cc(-c3cc(F)c4c(=O)n([C@H]5CCN[C@@H](C)C5)cnc4c3)cc(F)c2n1 (relative stereo) [Compound 343, cis-5-fluoro-7-(8-fluoro-2-methylimidazo[1,2-a]pyridin-6-yl)-3-(2-methylpiperidin-4-yl)quinazolin-4(3H)-one] | 100 to 1000 nM | 100 to 1000 nM | 100 to 1000 nM | 100 to 1000 nM | 100 to 1000 nM | < 100 nM | < 100 nM | < 100 nM
Cc1nc2c(F)cc(-c3ccc4c(=O)n(C5CCNCC5)cnc4c3)cc2s1 [Compound 285] | > 10000 nM | > 10000 nM | 1000 to 10000 nM | 1000 to 10000 nM | 1000 to 10000 nM | 100 to 1000 nM | 1000 to 10000 nM | 100 to 1000 nM
Cc1cn2cc(-c3cc(F)c4c(=O)n([C@H]5CCNC[C@@H]5F)cnc4c3)cc(F)c2n1 (relative stereo) [Compound 341, 5-fluoro-7-(8-fluoro-2-methylimidazo[1,2-a]pyridin-6-yl)-3-(trans-3-fluoropiperidin-4-yl)quinazolin-4(3H)-one] | 1000 to 10000 nM | 100 to 1000 nM | 100 to 1000 nM | 100 to 1000 nM | 1000 to 10000 nM | 100 to 1000 nM | < 100 nM | 100 to 1000 nM
COc1cc(-c2cc(F)c3c(=O)n(C4CCNCC4)cnc3c2)cnn1 [Compound 320] | > 10000 nM | > 10000 nM | > 10000 nM | > 10000 nM | > 10000 nM | > 10000 nM | > 10000 nM | > 10000 nM
Cc1cn2nc(-c3ccc4c(=O)n(C5CCN(C)C5)ncc4c3)cc(C)c2n1 (stereo not drawn) [Compound 271] | 1000 to 10000 nM | 1000 to 10000 nM | 1000 to 10000 nM | 1000 to 10000 nM | 1000 to 10000 nM | 1000 to 10000 nM | 1000 to 10000 nM | 1000 to 10000 nM
Cc1cn2nc(-c3ccc4c(=O)n([C@H]5CCNC6(CC6)C5)cnc4c3)cc(C)c2n1 [Compound 349, 3-[(7S)-4-azaspiro[2.5]octan-7-yl]-7-{2,8-dimethylimidazo[1,2-b]pyridazin-6-yl}quinazolin-4-one] | 1000 to 10000 nM | 100 to 1000 nM | 100 to 1000 nM | 100 to 1000 nM | 1000 to 10000 nM | 100 to 1000 nM | 100 to 1000 nM | 100 to 1000 nM
Cc1cn2nc(-c3ccc4c(=O)n([C@H]5CCN(C)[C@H](C)C5)ncc4c3)cc(C)c2n1 [Compound 278] | 100 to 1000 nM | < 100 nM | < 100 nM | < 100 nM | < 100 nM | 100 to 1000 nM | 100 to 1000 nM | 100 to 1000 nM
Cc1cn2nc(-c3ccc4c(=O)n(C5CCNCC5)cnc4c3)cc2c(C)n1 [Compound 298] | 1000 to 10000 nM | 100 to 1000 nM | 100 to 1000 nM | 100 to 1000 nM | 1000 to 10000 nM | 100 to 1000 nM | 100 to 1000 nM | 100 to 1000 nM
Cc1cc(-c2cc(F)c3c(=O)n(C4CCNC5(CC5)C4)cnc3c2)nc2cn(C)nc12 (stereo not drawn) [Compound 361, 3-{4-azaspiro[2.5]octan-7-yl}-7-{2,7-dimethylpyrazolo[4,3-b]pyridin-5-yl}-5-fluoroquinazolin-4-one] | 100 to 1000 nM | < 100 nM | < 100 nM | < 100 nM | < 100 nM | < 100 nM | < 100 nM | < 100 nM
Cc1cn2cc(-c3ccc4c(=O)n(C5CCNCC5)cnc4c3)nc2c(C)n1 [Compound 286] | 1000 to 10000 nM | 1000 to 10000 nM | 1000 to 10000 nM | 1000 to 10000 nM | 1000 to 10000 nM | 1000 to 10000 nM | 1000 to 10000 nM | 1000 to 10000 nM
